These results are taken from US10934302B1, “SHP2 phosphatase inhibitors and methods of use thereof” (Relay Therapeutics, Inc., priority 2018, dated 2021).

One may read the pIC50 as −log10 of the IC50, conventionally taken in molar units.

pIC50: −log10 of the molar value.

Sequence of SHP2 (Q06124 whole entry): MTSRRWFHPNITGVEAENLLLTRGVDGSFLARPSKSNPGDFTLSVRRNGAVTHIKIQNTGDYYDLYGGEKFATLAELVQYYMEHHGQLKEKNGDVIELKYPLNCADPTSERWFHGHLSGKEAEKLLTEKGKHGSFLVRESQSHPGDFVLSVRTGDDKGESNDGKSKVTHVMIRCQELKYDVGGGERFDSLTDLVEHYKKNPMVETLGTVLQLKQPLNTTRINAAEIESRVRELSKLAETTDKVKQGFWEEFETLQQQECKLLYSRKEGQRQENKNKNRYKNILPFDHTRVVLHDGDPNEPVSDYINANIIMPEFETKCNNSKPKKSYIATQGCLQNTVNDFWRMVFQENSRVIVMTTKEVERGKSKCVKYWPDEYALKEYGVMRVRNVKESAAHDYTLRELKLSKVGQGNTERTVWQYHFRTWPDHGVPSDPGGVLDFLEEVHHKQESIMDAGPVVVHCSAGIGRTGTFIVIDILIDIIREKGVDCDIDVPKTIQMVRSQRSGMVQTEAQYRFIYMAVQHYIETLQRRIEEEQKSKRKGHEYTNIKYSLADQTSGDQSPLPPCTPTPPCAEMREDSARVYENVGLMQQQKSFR

This experiment addresses SHP2 (Homo sapiens (Human), UniProt Q06124). The experiment in a line: SHP2 allosteric inhibition assay (DiFMUP prompt fluorescence). Type of experiment: biochemical. The note with it: 0.25 nM SHP2 activated with 0.5 μM peptide IRS1_pY1172(dPEG8)pY1222; substrate DiFMUP.
With `Cc1nc2c(N3CCCc4c3ccn(C)c4=O)n[nH]c2nc1N1CCC2(CC1)Cc1cc(F)ccc1[C@H]2N` [Example 245], the pIC50 is 5.00 to 6.00.

For `Cc1nc(N2CCC3(CC2)Cc2ccccc2[C@H]3N)c(C)nc1Sc1ccnc(N)c1Cl` [Example 215], the negative logarithm of the IC50 (pIC50) is at least 7.30.

`N[C@@H]1c2ccccc2CC12CCN(c1ncc(N3CCCc4ccccc43)nc1CO)CC2` [Example 212, {3-[(3S)-3-amino-1,3-dihydrospiro[indene-2,4′-piperidin]-1′-yl]-6-(1,2,3,4-tetrahydroquinolin-1-yl)pyrazin-2-yl}methanol] had a negative logarithm of the IC50 (pIC50) of at least 7.30.

On to `Cn1cc(-c2ccc3c(n2)CCCN3c2n[nH]c3nc(N4CCC5(CC4)Cc4ccc(F)cc4[C@H]5N)cnc23)cn1` [Example 40], for which the pIC50 is below 5.00.

Compound `N[C@@H]1c2ccccc2OC12CCN(c1cnc(SCC3CC3)cn1)CC2` [Example 273, (R)-1′-(5-((cyclopropylmethyl)thio)pyrazin-2-yl)-3H-spiro[benzofuran-2,4′-piperidin]-3-amine] showed a negative logarithm of the IC50 (pIC50) of at least 7.30.

Compound `N[C@H]1c2ccccc2CC12CCN(c1cnc3c(Sc4ccnc(Cl)c4Cl)n[nH]c3n1)CC2` [Example 92] had a negative-log IC50 (pIC50) of at least 7.30.

The compound `N#Cc1nc(Sc2ccnc(Cl)c2Cl)cnc1N1CCC2(CC1)Cc1ccccc1[C@H]2N` [Example 220] had a negative logarithm of the IC50 (pIC50) of at least 7.30.

Take `Cn1nccc1-c1cc(N2CCC3(CC2)Cc2ccccc2[C@H]3N)cn2ccnc12` [Example 201]: the pIC50 is at least 7.30.

Take `Cc1nc(N2CCC3(CC2)Oc2ccccc2[C@H]3N)c(CO)nc1-c1cccc(Cl)c1Cl` [Example 268, (R)-(3-(3-amino-3H-spiro[benzofuran-2,4′-piperidin]-1′-yl)-6-(2,3-dichlorophenyl)-5-methylpyrazin-2-yl)methanol]: the negative logarithm of the IC50 (pIC50) is at least 7.30.

As for `N[C@H]1c2ccccc2C[C@]12CC[C@@H](c1cnc(SCC3CC3)cn1)CC2` [Example 285, (1r, 4r)-4-{5-[(cyclopropylmethyl)sulfanyl]pyrazin-2-yl}-1′,3′-dihydrospiro[cyclohexane-1,2′-inden]-3′-amine], the negative logarithm of the IC50 (pIC50) is at least 7.30.

Consider `CO[C@H]1C[C@H](N2CCN(c3n[nH]c4nc(N5CCC6(CC5)Cc5ccccc5C6N)cnc34)c3ccc(C#N)cc32)C1` (stereo partly shown) [Example 33], for which the negative logarithm of the IC50 (pIC50) was at least 7.30.

With `N[C@H]1c2ccccc2CC12CCN(c1cnc3c(-c4ccnc(Cl)c4Cl)n[nH]c3n1)CC2` [Example 71], the pIC50 was at least 7.30.

In turn, `N[C@@H]1c2ccccc2CC12CCN(c1ncnc3c1cnn3-c1ccccc1)CC2` [Example 195, (3S)-1′-{1-phenyl-1Hpyrazolo[3,4-d]pyrimidin-4-yl}-1,3-dihydrospiro[indene-2,4′-piperidin]-3-amine] had a pIC50 of at least 7.30.

`Cc1cc(-c2cccnc2)c(C)c(N2CCC3(CC2)Cc2ccccc2[C@H]3N)n1` [Example 294, (3S)-1′-{3′,6′-dimethyl-[3,4′-bipyridin]-2′-yl}-1,3-dihydrospiro[indene-2,4′-piperidin]-3-amine] had a negative-log IC50 (pIC50) of at least 7.30.

`Nc1nccc(Oc2n[nH]c3nc(N4CCC5(CC4)Cc4ccccc4[C@@H]5N)cnc23)c1Cl` (single isomer, unassigned) [Example 136] showed a pIC50 of at least 7.30.

The compound `N[C@@H]1c2ccccc2CC12CCN(c1cnc3c(ccn3-c3cccc4ncccc34)n1)CC2` [Example 192, (3S)-1′-[5-(quinolin-5-yl)-5H-pyrrolo[2,3-b]pyrazin-2-yl]-1,3-dihydrospiro[indene-2,4′-piperidin]-3-amine] gave a negative logarithm of the IC50 (pIC50) of 5.00 to 6.00.

Turning to `N[C@@H]1c2ccccc2CC12CCN(c1cnc3c(Sc4ccnc(Cl)c4Cl)n[nH]c3n1)CC2` [Example 91], the pIC50 is 5.00 to 6.00.

The compound `C[C@@H](C#N)N(C)c1n[nH]c2nc(N3CCC4(CC3)Cc3ccccc3[C@H]4N)cnc12` (racemic) [Example 150, (S)-2-((6-((S)-1-amino-1,3-dihydrospiro[indene-2,4′-piperidin]-1′-yl)-1H-pyrazolo[3,4-b]pyrazin-3-yl)(methyl)amino)propanenitrile] showed a pIC50 of 6.00 to 7.30.

`N[C@@H]1c2ccccc2CC12CCN(C(=O)c1csc(-c3c(Cl)cccc3Cl)n1)CC2` [Example 286, (1S)-1′-[2-(2,6-dichlorophenyl)-1,3-thiazole-4-carbonyl]-1,3-dihydrospiro[indene-2,4′-piperidin]-1-amine]: the pIC50 is at least 7.30.

Regarding `N[C@H]1c2c(F)ccc(F)c2CC12CCN(c1cnc3c(N4CCCc5ncccc54)n[nH]c3n1)CC2` [Example 62], the negative-log IC50 (pIC50) was at least 7.30.

Consider `N[C@@H]1c2ccccc2CC12CCN(c1ncc(SCC3CC3)nc1CO)CC2` [Example 244, (S)-(3-(1-amino-1,3-dihydrospiro[indene-2,4′-piperidin]-1′-yl)-6-((cyclopropylmethyl)thio)pyrazin-2-yl)methanol], for which the negative-log IC50 (pIC50) was at least 7.30.

Consider `N[C@@H]1c2ccccc2CC12CCN(c1cnc3ccccc3n1)CC2` [Example 179], for which the negative-log IC50 (pIC50) was at least 7.30.

`COc1ccc2c(n1)[C@@H](N)C1(CCN(c3cnc4c(N5CCCc6ncccc65)n[nH]c4n3)CC1)C2` [Example 106] gave a negative logarithm of the IC50 (pIC50) of at least 7.30.

Compound `N[C@@H]1c2ccccc2CC12CCN(c1cnc(N3CCCC[C@@H]3c3ccccc3)cn1)CC2` (racemic) [Example 166, (S)-1′-(5-((R)-2-phenylpiperidin-1-yl)pyrazin-2-yl)-1,3-dihydrospiro[indene-2,4′-piperidin]-1-amine] had a negative logarithm of the IC50 (pIC50) of at least 7.30.

`Cc1nc(N2CCCc3ncccc32)cnc1N1CCC2(CC1)Cc1ccccc1[C@H]2N` [Example 196] showed a pIC50 of at least 7.30.

Regarding `C[C@@H](O)c1nc(Sc2ccnc(Cl)c2Cl)cnc1N1CCC2(CC1)Cc1ccccc1[C@H]2N` [Example 259, (1R)-1-{3-[(3S)-3-amino-1,3-dihydrospiro[indene-2,4′-piperidin]-1′-yl]-6-[(2,3-dichloropyridin-4-yl)sulfanyl]pyrazin-2-yl}ethan-1-ol], the negative-log IC50 (pIC50) was at least 7.30.

Compound `N[C@@H]1c2ccc(F)cc2OC12CCN(c1cnc(SCC3CC3)cn1)CC2` [Example 240] showed a pIC50 of at least 7.30.

`N#Cc1cccc2c1CC1(CCN(c3cnc4c(N5CCCc6ncccc65)n[nH]c4n3)CC1)[C@@H]2N` [Example 117, (S)-1-amino-1′-(3-(3,4-dihydro-1,5-naphthyridin-1(2H)-yl)-1H-pyrazolo[3,4-b]pyrazin-6-yl)-1,3-dihydrospiro[indene-2,4′-piperidine]-4-carbonitrile] showed a pIC50 of at least 7.30.

With `Cn1cnc2c(N3CCC4(CC3)Cc3ccccc3[C@H]4N)ncnc21` [Example 184], the negative-log IC50 (pIC50) was 6.00 to 7.30.

On to `Nc1nccc(Sc2cnc(N3CCC4(CC3)Cc3ccccc3[C@H]4N)cn2)c1Cl` [Example 63], for which the pIC50 is 6.00 to 7.30.

The compound `N[C@@H]1c2ccccc2CC12CCN(c1ncnc3c(-c4cccc(Cl)c4Cl)csc13)CC2` [Example 76] gave a negative logarithm of the IC50 (pIC50) of at least 7.30.

`N[C@@H]1c2ccccc2CC12CCN(c1cnc3c(Oc4ccnc(Cl)c4Cl)n[nH]c3n1)CC2` [Example 126, (3S)-1′-{3-[(2,3-dichloropyridin-4-yl)oxy]-1H-pyrazolo[3,4-b]pyrazin-6-yl}-1,3-dihydrospiro[indene-2,4′-piperidin]-3-amine]: the pIC50 is at least 7.30.

`N[C@@H]1c2ccccc2CC12CCN(c1cnc(S[C@@H]3CCOC3)cn1)CC2` [Example 235] had a negative logarithm of the IC50 (pIC50) below 5.00.

`N[C@@H]1c2ccccc2CC12CCN(c1cnc(SC3CCC3)cn1)CC2` [Example 236] had a negative-log IC50 (pIC50) of at least 7.30.
